The test system of one data set is new-born mice. As to the kind of experiment: Test 4: toxicity on new-born mice, IP. The settings on record: new-born mice. It is filed as in vivo, mouse. From the text: Test 4: Investigation of the toxicity
The toxic dose has been sought, on adult ([…]×DBA/2) Fl mice and on new-born mice, of the compounds of the invention by injection by the IP route. The results obtained are given hereinafter:
2-On new-born mice (IP route)

A further data set relates to L1210 cells. As to the kind of experiment: Test 19: effect of time of administration, L1210 (Table XIV). Set-up: MST: unit not given beside the values. Particulars: 20 mg/kg IP. It is filed as in vivo, mouse. An excerpt: Test 19: Effect of the time of administration of compound 21
The non-protective effect at day+7 could be explained by the fact that some cells migrate through a compartment inaccessible to the drug (as postulated by J. B. Le Pecq for the 9-hydroxy-ellipticine).

On to `CCN(CC)CCCNc1nccc2c(C)c3[nH]c4ccncc4c3cc12` [Example 7, 1-(γ-diethylaminopropyl)amino-5-methyl-dipyrido-[4,3-b][3,4-f] indole], for which, in the data set with new-born mice, the toxic dose entry is given as “higher than 2.5 mg/kg of mouse”. Further, the ILS % in the data set with L1210 cells (day +2) was 56.4%; with L1210 cells (day +3, listed as BD 40) it was 43.0%; with L1210 cells (day +3, listed as Compound 21), 43%; with L1210 cells (day +4), 22.8%; in the data set on L1210 cells (day +5) it was 17.8%; with L1210 cells (day +6) it was 20.8%. In addition, the ILS % was determined as 2.0% in the data set with L1210 cells (day +7, listed as BD 40) and 2% in the data set on L1210 cells (day +7, listed as Compound 21). Moreover, the MST in the data set with L1210 cells (day +2) is recorded as 15.8; in the data set with L1210 cells (day +3), 14.4; in the data set on L1210 cells (day +4), 12.4; in the data set on L1210 cells (day +5) it was 11.9; in the data set on L1210 cells (day +6), 12.2; in the data set with L1210 cells (day +7), 10.3. The Range of death with L1210 cells (day +2, 10^4 cells) is on record as 15-17; in the data set on L1210 cells (day +3), 12-17; in the data set on L1210 cells (day +4) it was 10-14; with L1210 cells (day +5) it was 10-13; with L1210 cells (day +6) it was 10-14; with L1210 cells (day +7) it was 10-13.

Values taken from patent US4444776A, “Dipyrido (4,3-B) (3,4-F) indoles, process for obtaining them, therapeutical use and pharmaceutical compositions” (priority 1977, dated 1984).
